Like-named read-outs stand apart in the source and are kept apart here.
Assays:
IV-cPLA(2) = target: T1, IV-cPLA(2) (Homo sapiens, UniProt P47712); assay: PLA(2) activity, hydrolysis of bis-BODIPY FL C11-PC in activated U937 cells; assay type: cell-based
T1 sequence (P47712 1-749): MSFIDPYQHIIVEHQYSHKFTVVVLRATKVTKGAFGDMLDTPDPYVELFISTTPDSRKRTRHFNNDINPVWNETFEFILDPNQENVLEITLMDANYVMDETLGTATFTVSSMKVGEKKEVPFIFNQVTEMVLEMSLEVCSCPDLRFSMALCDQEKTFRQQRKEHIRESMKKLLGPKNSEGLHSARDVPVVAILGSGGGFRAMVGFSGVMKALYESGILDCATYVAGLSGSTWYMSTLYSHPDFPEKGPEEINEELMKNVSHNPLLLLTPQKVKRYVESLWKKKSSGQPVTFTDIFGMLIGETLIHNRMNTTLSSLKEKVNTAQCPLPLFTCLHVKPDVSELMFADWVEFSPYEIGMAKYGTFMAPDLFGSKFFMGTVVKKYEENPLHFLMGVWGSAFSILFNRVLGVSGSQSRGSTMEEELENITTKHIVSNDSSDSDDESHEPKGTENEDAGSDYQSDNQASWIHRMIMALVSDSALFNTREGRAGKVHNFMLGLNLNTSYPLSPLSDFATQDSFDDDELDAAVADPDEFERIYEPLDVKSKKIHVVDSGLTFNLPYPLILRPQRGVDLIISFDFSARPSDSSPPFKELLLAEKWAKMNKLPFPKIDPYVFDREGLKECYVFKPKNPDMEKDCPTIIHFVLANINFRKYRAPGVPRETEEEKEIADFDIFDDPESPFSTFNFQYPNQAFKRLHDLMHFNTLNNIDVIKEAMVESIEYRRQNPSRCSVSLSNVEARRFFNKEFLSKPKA
Procedure: The PLA(2) activity was measured by quantitatively analyzing the fluorescent product of hydrolysis from 1,2-bis-(4,4-difluoro-5,7-dimethyl-4-bora-3a,4a-diaza-s-indecene-3-undecanoyl)-sn-glycero-3-phosphocholine (hereinafter referred to bis-BODIPY®FL C11—PC, Molecular Probes, Inc., B-7701) using activated U937 cells (human monoblastic lymphoma cell line) by inflammatory stimulus (Meshulam, T. et al., The journal of Biological Chemistry 267 (30): 21465-21470 (1992); and Solito, E. et al., British Journal of Pharmacology 124: 1675-1683 (1998).). The substrate bis-BODIPY®FL C11—PC is incorporated into cellular membranes, the proximity of the BODIPY FL fluorophores on adjacent phospholipid acyl chains causes fluorescence self-quenching. Separation of the fluorophores upon hydrolytic cleavage of one of the acyl chains by PLA(1) or the PLA(2) results in increased fluorescence. In the activated U937 by inflammatory stimulus, it is shown that this substrate should be cleaved enzymatically by IV-cPLA(2) from the feature of its behaviors including sensitivity profiles against the inhibitors.
The human cell line U937 was purchased from Dai-Nippon Pharmaceuticals Co., Ltd. The cells were maintained by transferring every 3-4 days into RPMI 1640 medium (Sigma Chemical Co., R6504) supplemented with heat-inactivated 10% fetal bovine serum (Fetal Bovine Serum, Sigma Chemical Co., F 4135) in a 5% CO2 humidified atmosphere at 37° C. The cells were transferred into the culture medium described above, containing 1.2% (v/v) dimethylsulfoxide (hereinafter referred to as […], Nacalai tesque Co., Ltd., D 134-45), and pre-cultured for 96 to 120 hours so as to differentiate into the macrophage-like cells to be provided for the assay. The macrophage-like cells were collected and washed by centrifugation with the Assay medium (Dulbecco's phosphate buffered saline (hereinafter referred to as PBS)-2.2 mM glucose-2.5 μm albumin). Then, Phorbol 12-Myristate 13-Acetate (hereinafter referred to as TPA, Sigma Chemical Co., P 8139) was added to the Assay medium to be 1×10^−8M as the final concentration. Then, the macrophage-like cells were further cultured for an hour to be activated (Rzigalinski, B. A. & Rosenthal, M. D., Biochimica et Biophysica Acta 1223: 219-225 (1994); and Gonchar, M. V. et al., Biochemical and Biophysical Research Communication, 249: 829-832 (1998).).
For preparing substrate liposome suspension, bis-BODIPY®FL C11—PC was combined with phosphatidylcholine (Sigma Chemical Co., P 7769) at 1:9 molar ratio in chloroform, and dried under nitrogen flow. The dried mixture was suspended with the Assay medium at 100 μg/mL, voltexed and sonicated for an hour on ice under dark condition.
The test compound was dissolved with DMSO at 30 mM, and the solution diluted with either DMSO or the Assay medium before addition into the reaction mixture. The DMSO concentration in the reaction mixture was controlled so as to be no more than 0.1%. The 30-fold concentration of test compound solution was put into each well of MICRPTEST™ Tissue Culture Plate, 96 Well (Falcon, 3072) at a rate of 2.5 μL/well. To the respective well was added 25 μL/well of the activated U937 cell suspension ([…]), and the cells were pre-cultured for 120 min. at 37° C. in a 5% CO2 atmosphere incubator. 47.5 μL/well of the substrate liposome suspension with 1.5×10^−6M A23187 (Sigma Chemical Co., C 7522) was added into each well to prepare 75 μL/well of the total reaction mixture, followed by culture for 30 min. under the same conditions with shielding against light. 100 μL/well of 0.1% GEDTA (Dojindo Laboratories Co. Ltd., 348-01311) methanol solution was added into each well and mixed to stop the reaction. […]

TPA-induced ear edema = assay type: in vivo, ICR-strain male mouse; conditions: topical, 6 hours after TPA
Procedure: This test was carried out referring to the method of Carlson, R. P. et al. (Agents and Actions, 17(2): 197-204 (1985).) and the method of Chang, J. (European Journal of Pharmacology, 142: 197-205 (1987).). […] 6 hours later, the thickness of each ear at the particular part was respectively measured three times using a digimatic micrometer to calculate the mean value. Ear edema was determined by subtracting the mean thickness of the left ear as without treatment from that of the right ear as TPA-applied. […] As the positive control, 100 mg/kg of Hydrocortisone (Sigma Chemical Co., H 4001) suspension was applied to the mouse similarly as for the compound of the present invention.

Row | Structure (SMILES) | Inhibition (%) (IV-cPLA(2); 0.1 μM) | other results
1 | C[C@@H]1[C@@H](c2ccc(Cl)cc2)SC(=O)N1C(=O)NC1CCCCO1 (single isomer, unassigned) [Compound 2-246] | – | Inhibition (%) (IV-cPLA(2); 0.01 μM): 78%; Ear Edema Inhibition (%) (TPA-induced ear edema; 1 mg/40 μL/ear × 2): 74%
2 | CC1C(c2ccc(Cl)cc2)SC(=NC#N)N1Cc1ccc(Cl)nc1 (centres unmarked) [Compound 1-5] | 66 | –
3 | CC1NC(=N[N+](=O)[O-])SC1c1ccc(Cl)cc1 (centres unmarked) [Compound 1-11] | 88 | –
4 | CN=C1OC(c2ccc(C)cc2)C(C)N1C(=O)Nc1ccc(Cl)cc1 (centres unmarked) [Compound 1-25] | 100 | –
5 | CC(C)N=C1OC(c2ccc(Cl)cc2)C(C)N1C(=O)NC1CCCCC1 (centres unmarked) [Compound 1-28] | 93 | Ear Edema Inhibition (%) (TPA-induced ear edema; 1 mg/20 μL/ear × 2): 36%
6 | CCOC(=O)CN=C1NC(C)C(c2ccc(C)cc2)S1 (centres unmarked) [Compound 1-35] | 57 | –
7 | CC(=O)N=C1SC(c2ccccc2)C(C)N1CC(OC(C)=O)c1ccccc1 (centres unmarked) [Compound 1-42] | 94 | –
8 | C=CC(=O)N=C1SC(c2ccc(C)cc2)C(C)N1C(=O)NC1CCCCC1 (centres unmarked) [Compound 1-49] | 91 | –
9 | Cc1ccc(C2OC(=NC(=O)c3c(C)cccc3Cl)NC2C)cc1 (centres unmarked) [Compound 1-73] | 68 | Ear Edema Inhibition (%) (TPA-induced ear edema; 1 mg/40 μL/ear × 2): 86%
10 | CCNC(=O)N1C(=NNc2ccccc2)SC(c2ccc(Cl)cc2)C1C (centres unmarked) [Compound 1-77] | – | Inhibition (%) (IV-cPLA(2); 1 μM): 100%
11 | Cc1ccc(N2C(=NC(=O)NC3CCCCC3)SC(c3ccc(Cl)cc3)C2C)cc1 (centres unmarked) [Compound 1-90] | – | Ear Edema Inhibition (%) (TPA-induced ear edema; 1 mg/20 μL/ear × 2): 41%
12 | Cc1ccc(C2SC(=NC(=S)NC3CCCCC3)NC2C)cc1 (centres unmarked) [Compound 1-112] | – | Inhibition (%) (IV-cPLA(2); 1 μM): 72%; Ear Edema Inhibition (%) (TPA-induced ear edema; 1 mg/40 μL/ear × 2): 69%
13 | CC1C(c2ccc(Cl)cc2)SC(=O)N1C(=O)Nc1ccncc1 (centres unmarked) [Compound 2-21] | – | Inhibition (%) (IV-cPLA(2); 1 μM): 100%
14 | CC1C(c2ccc(Cl)cc2)SC(=O)N1C(=O)NN(C)C (centres unmarked) [Compound 2-22] | 100 | –
15 | CC1C(c2ccc(Cl)cc2)SC(=O)N1C(=O)NS(=O)(=O)c1ccccc1Cl (centres unmarked) [Compound 2-36] | 61 | Ear Edema Inhibition (%) (TPA-induced ear edema; 0.3 mg/20 μL/ear × 2): 41%
16 | CC1C(c2ccc(Cl)cc2)SC(=O)N1C(=S)NCCN1CCOCC1 (centres unmarked) [Compound 2-37] | 63 | –
17 | CC1C(c2ccc(Cl)cc2)SC(=O)N1C(=O)NC(=O)c1ccccc1 (centres unmarked) [Compound 2-38] | – | Inhibition (%) (IV-cPLA(2); 1 μM): 87%
18 | Cc1ccc(C2OC(=O)N(C(=O)NCCCl)C2C)cc1 (centres unmarked) [Compound 2-48] | 77 | –
19 | CCOC(=O)C(C)NC(=O)N1C(=O)OC(c2ccc(C)cc2)C1C (centres unmarked) [Compound 2-54] | 95 | Ear Edema Inhibition (%) (TPA-induced ear edema; 0.3 mg/20 μL/ear × 2): 64%
20 | CCN(CC)S(=O)(=O)NC(=O)N1C(=O)OC(c2ccc(C)cc2)C1C (centres unmarked) [Compound 2-55] | 94 | Ear Edema Inhibition (%) (TPA-induced ear edema; 1 mg/40 μL/ear × 2): 54%
21 | COS(=O)(=O)NC(=O)N1C(=O)OC(c2ccc(C)cc2)C1C (centres unmarked) [Compound 2-56] | 92 | –
22 | Cc1ccc(C2OC(=O)N(C(=O)NS(=O)(=O)c3ccccc3C)C2C)cc1 (centres unmarked) [Compound 2-60] | 100 | Ear Edema Inhibition (%) (TPA-induced ear edema; 1 mg/40 μL/ear × 2): 53%

Row | Structure (SMILES) | Inhibition (%) (IV-cPLA(2); 0.1 μM) | other results
23 | CC1C(c2ccc(-c3ccccc3)cc2)OC(=O)N1C(=S)NC1CCCCC1 (centres unmarked) [Compound 2-75] | 83 | –
24 | O=C(NC1CCCCO1)N1CC(c2ccc(-c3ccccc3)cc2)OC1=O (centres unmarked) [Compound 2-78] | – | Inhibition (%) (IV-cPLA(2); 0.01 μM): 100%
25 | Cc1ccc(C2OC(=O)N(C(=O)NC(=O)c3c(F)cccc3F)C2C)cc1 (centres unmarked) [Compound 2-79] | 55 | –
26 | CC1C(c2cccc3ccccc23)OC(=O)N1C(=O)NC1CCCCO1 (centres unmarked) [Compound 2-113] | – | Inhibition (%) (IV-cPLA(2); 1 μM): 72%
27 | CC1C(c2ccc3ccccc3c2)OC(=O)N1C(=O)NC1CCCCO1 (centres unmarked) [Compound 2-115] | 63 | –
28 | CCONC(=O)N1C(=O)OC(c2ccc(Oc3ccccc3)cc2)C1C (centres unmarked) [Compound 2-116] | 54 | –
29 | CC1C(c2ccc(Cc3ccccc3)cc2)OC(=O)N1C(=O)NC1CCCCO1 (centres unmarked) [Compound 2-117] | 82 | –
30 | CCN(C(C)C)S(=O)(=O)NC(=O)N1C(=O)OC(c2ccc3ccccc3c2)C1C (centres unmarked) [Compound 2-126] | 72 | –
31 | O=C(NC1CCCCO1)N1CC(c2ccc3ccccc3c2)OC1=O (centres unmarked) [Compound 2-130] | 68 | –
32 | COC1CCCC(NC(=O)N2C(=O)OC(c3ccc4ccccc4c3)C2C)O1 (centres unmarked) [Compound 2-133] | – | Inhibition (%) (IV-cPLA(2); 1 μM): 75%
33 | CC1C(c2cccnc2)SC(=O)N1C(=O)NC1CCCCC1 (centres unmarked) [Compound 2-145] | 72 | –
34 | CC1C(c2cnc3ccccc3c2)OC(=O)N1C(=O)NC1CCCCO1 (centres unmarked) [Compound 2-151] | – | Inhibition (%) (IV-cPLA(2); 0.01 μM): 64%
35 | CC1C(c2ccccc2)OC(=O)N1C(=O)NC1CCCCO1 (centres unmarked) [Compound 2-155] | 95 | –
36 | Cc1ccc(C2OC(=O)N(C(=O)NC3CCSCC3)C2C)cc1 (centres unmarked) [Compound 2-157] | 96 | –
37 | Cc1ccc(C2OC(=O)N(C(=O)NC3CCOCC3)C2C)cc1 (centres unmarked) [Compound 2-159] | 95 | –
38 | Cc1ccc(C2OC(=O)N(C(=O)NN3CCN(C)CC3)C2C)cc1 (centres unmarked) [Compound 2-161] | – | Inhibition (%) (IV-cPLA(2); 1 μM): 65%
39 | CC1C(c2ccccc2)OC(=O)N1C(=S)NC1CCCCC1 (centres unmarked) [Compound 2-180] | 100 | –
40 | Cc1ccc(C2OC(=O)N(C(=S)NC3CCCCC3)C2C)cc1C (centres unmarked) [Compound 2-182] | 91 | –
41 | CC1C(c2ccc(-c3ccccc3)cc2)OC(=O)N1C(=O)Nc1ccc(Cl)cc1 (centres unmarked) [Compound 2-186] | 75 | –
42 | CC1C(c2ccc(-c3ccccc3)cc2)OC(=O)N1C(=O)Nc1ccc(Cl)cc1 (centres unmarked) [Compound 2-187] | 74 | –
43 | CC1C(c2ccc(Cl)cc2)SC(=O)N1C(=O)NC1CCCCO1 (centres unmarked) [Compound 2-201] | – | Inhibition (%) (IV-cPLA(2); 1 μM): 94%
44 | CC(=O)OCC(=O)[C@@]1(O)[C@H](C)C[C@H]2[C@@H]3CCC4=CC(=O)C=C[C@]4(C)[C@@]3(F)[C@@H](O)C[C@@]21C [DEX-Ac, Dexamathasone-21-acetate, reference compound] | – | Ear Edema Inhibition (%) (TPA-induced ear edema; 0.3 mg/20 μL/ear × 2): 49%; Ear Edema Inhibition (%) (TPA-induced ear edema; 1 mg/20 μL/ear × 2): 80%
